The experiment relates to sera from tuberculosis patients. Kind of experiment: ELISA recognition of synthetic MTP40 peptides by human sera. The class given is binding. Particulars: sera from active tuberculosis patients having B(+) sputum; peptide coated at 3 micrograms per well. In general terms: In an ELISA, binding on a coated surface is turned into a signal by an enzyme label.

The source of these data is patent US5254459A, “Nucleotide and amino acid sequences of protein MTP40 of M. tuberculosis and synthetic peptides derived therefrom” (priority 1992, dated 1993).

No end group written: not given here.

With “WLKLGLVEFGGVAKLNAEVMS [S698, synthetic peptide derived from M. tuberculosis MTP40 protein]”, the “percentage of sera recognizing the peptide (ELISA)” value is on record as 20.8%.
